The NIST ThermoML archive (doi:10.1021/je900050z)
Values joined by “and” are separate entries in the source; they are usually repeats but may differ in a detail not shown here. Equal values may be shown once. ± gives the expanded uncertainty stated by the source.

Conditions: Liquid

CCCCCCO [hexan-1-ol]
Conditions	vapor or sublimation pressure [kPa]
343.46 K	2.04 ± 0.17
344.2 K	2.16 ± 0.18
344.6 K	2.23 ± 0.18
345.36 K	2.35 ± 0.19
346.17 K	2.47 ± 0.2
347.27 K	2.67 ± 0.22
348.1 K	2.79 ± 0.23
348.35 K	2.85 ± 0.23
349.38 K	3.04 ± 0.25
349.75 K	3.11 ± 0.25
350.75 K	3.32 ± 0.27
351.39 K	3.44 ± 0.28
352.2 K	3.64 ± 0.29
352.63 K	3.73 ± 0.3
353 K	3.83 ± 0.31
353.31 K	3.89 ± 0.31
353.82 K	3.96 ± 0.32
355.2 K	4.31 ± 0.35
357.01 K	4.79 ± 0.38
358.22 K	5.15 ± 0.41
359.43 K	5.51 ± 0.44
360.34 K	5.79 ± 0.46
361.12 K	6.04 ± 0.48
361.86 K	6.29 ± 0.5
363.85 K	6.99 ± 0.56
364.61 K	7.27 ± 0.58
365.58 K	7.64 ± 0.61
366.3 K	7.92 ± 0.63
367.44 K	8.4 ± 0.67
368.05 K	8.67 ± 0.69
368.99 K	9.08 ± 0.73
369.67 K	9.4 ± 0.75
370.24 K	9.67 ± 0.77
370.83 K	9.95 ± 0.8
371.45 K	10.27 ± 0.82
372.1 K	10.59 ± 0.85
373 K	11.05 ± 0.88
373.67 K	11.43 ± 0.92
374.19 K	11.73 ± 0.94
375.14 K	12.27 ± 0.98
375.93 K	12.73 ± 1
376.59 K	13.15 ± 1.1
377.22 K	13.53 ± 1.1
377.83 K	13.71 ± 1.1
378.01 K	13.85 ± 1.1
378.37 K	14.15 ± 1.1
378.72 K	14.4 ± 1.1
379.1 K	14.65 ± 1.2
379.46 K	14.91 ± 1.2
379.75 K	15.12 ± 1.2
380.06 K	15.37 ± 1.2
380.41 K	15.61 ± 1.2
380.87 K	15.95 ± 1.3
381.15 K	16.15 ± 1.3
381.45 K	16.37 ± 1.3
381.89 K	16.71 ± 1.3
382.25 K	16.97 ± 1.4
382.56 K	17.21 ± 1.4
382.85 K	17.44 ± 1.4
383.18 K	17.69 ± 1.4
383.34 K	17.84 ± 1.4
383.67 K	18.09 ± 1.4
384.08 K	18.43 ± 1.5
384.87 K	19.05 ± 1.5
385.37 K	19.47 ± 1.6
385.86 K	19.91 ± 1.6
386.31 K	20.31 ± 1.6
386.83 K	20.79 ± 1.7
387.23 K	21.15 ± 1.7
387.62 K	21.48 ± 1.7
388.1 K	21.91 ± 1.8
388.59 K	22.37 ± 1.8
389.05 K	22.79 ± 1.8
389.48 K	23.2 ± 1.9
389.89 K	23.6 ± 1.9
390.23 K	23.95 ± 1.9
390.65 K	24.36 ± 1.9
390.93 K	24.67 ± 2
391.4 K	25.13 ± 2
391.75 K	25.51 ± 2
392.06 K	25.83 ± 2.1
392.51 K	26.31 ± 2.1
392.77 K	26.59 ± 2.1
393.14 K	27 ± 2.2

CCCC(C)O (stereo not given) [pentan-2-ol]
Conditions	vapor or sublimation pressure
323.84 K	4.16 ± 0.34 kPa
324.19 K	4.41 ± 0.36 kPa
324.55 K	4.39 ± 0.36 kPa
325.09 K	4.67 ± 0.38 kPa
326 K	4.93 ± 0.4 kPa
326.22 K	4.89 ± 0.4 kPa
326.99 K	5.27 ± 0.43 kPa
327.15 K	5.2 ± 0.42 kPa
327.64 K	5.43 ± 0.44 kPa
328.19 K	5.71 ± 0.46 kPa
328.23 K	5.64 ± 0.46 kPa
329.05 K	5.91 ± 0.48 kPa
329.11 K	5.95 ± 0.48 kPa and 6.04 ± 0.49 kPa
329.66 K	6.16 ± 0.5 kPa
329.9 K	6.33 ± 0.51 kPa
330.86 K	6.71 ± 0.54 kPa
331.78 K	7.08 ± 0.57 kPa
332.29 K	7.17 ± 0.58 kPa
332.55 K	7.4 ± 0.6 kPa
332.61 K	7.31 ± 0.59 kPa
332.92 K	7.43 ± 0.6 kPa
333.15 K	7.52 ± 0.6 kPa
333.37 K	7.76 ± 0.62 kPa
333.88 K	7.99 ± 0.64 kPa
334.61 K	8.33 ± 0.67 kPa
335.52 K	8.77 ± 0.7 kPa
336.34 K	9.17 ± 0.74 kPa
336.37 K	9.19 ± 0.74 kPa
337.2 K	9.59 ± 0.77 kPa
337.85 K	9.95 ± 0.8 kPa
338.74 K	10.43 ± 0.84 kPa
339.44 K	10.81 ± 0.87 kPa
340.1 K	11.21 ± 0.9 kPa
340.82 K	11.67 ± 0.94 kPa
341.54 K	12.11 ± 0.97 kPa
342.2 K	12.52 ± 1 kPa
342.83 K	12.77 ± 1 kPa
342.88 K	12.97 ± 1 kPa
343.15 K	13 ± 1 kPa
343.26 K	13.07 ± 1.1 kPa
343.3 K	13.11 ± 1.1 kPa
343.38 K	13.16 ± 1.1 kPa
344.38 K	13.99 ± 1.1 kPa
345.27 K	14.65 ± 1.2 kPa
346.15 K	15.31 ± 1.2 kPa
347.02 K	15.96 ± 1.3 kPa
347.8 K	16.63 ± 1.3 kPa
348.68 K	17.32 ± 1.4 kPa
349.38 K	17.95 ± 1.4 kPa
350.16 K	18.63 ± 1.5 kPa
350.93 K	19.31 ± 1.6 kPa
351.64 K	19.96 ± 1.6 kPa
351.88 K	20 ± 1.6 kPa
352.33 K	20.43 ± 1.6 kPa
352.6 K	20.65 ± 1.6 kPa
352.7 K	20.72 ± 1.7 kPa
352.76 K	20.83 ± 1.7 kPa
352.89 K	20.96 ± 1.7 kPa
353.05 K	21.12 ± 1.7 kPa
353.1 K	21.19 ± 1.7 kPa
353.15 K	21.2 ± 1.7 kPa
353.35 K	21.4 ± 1.7 kPa
354.12 K	22.16 ± 1.8 kPa
354.72 K	22.83 ± 1.8 kPa
355.42 K	23.55 ± 1.9 kPa
355.92 K	24.12 ± 1.9 kPa
356.39 K	24.44 ± 2 kPa
356.55 K	24.84 ± 2 kPa
357.15 K	25.47 ± 2 kPa
357.76 K	26.2 ± 2.1 kPa
357.79 K	26 ± 2.1 kPa
358.23 K	26.75 ± 2.1 kPa
358.83 K	27.45 ± 2.2 kPa
358.88 K	27.32 ± 2.2 kPa
359.01 K	27.45 ± 2.2 kPa
359.53 K	28.19 ± 2.3 kPa
359.91 K	28.67 ± 2.3 kPa
360.35 K	29.25 ± 2.3 kPa
360.5 K	29.41 ± 2.4 kPa
361.12 K	30.29 ± 2.4 kPa
361.45 K	30.68 ± 2.5 kPa
362.1 K	31.59 ± 2.5 kPa
362.5 K	32.13 ± 2.6 kPa
362.93 K	32.73 ± 2.6 kPa
363.38 K	33.35 ± 2.7 kPa
363.85 K	34.05 ± 2.7 kPa
364.28 K	34.64 ± 2.8 kPa
364.84 K	35.47 ± 2.8 kPa
365.13 K	35.95 ± 2.9 kPa
365.62 K	36.71 ± 2.9 kPa
366.01 K	37.32 ± 3 kPa
366.4 K	37.95 ± 3 kPa
366.86 K	38.64 ± 3.1 kPa
367.24 K	39.31 ± 3.1 kPa
367.65 K	39.97 ± 3.2 kPa
368.06 K	40.64 ± 3.2 kPa
368.44 K	41.27 ± 3.3 kPa
368.85 K	41.96 ± 3.4 kPa
369.31 K	42.73 ± 3.4 kPa
369.58 K	43.23 ± 3.5 kPa
370.05 K	44.05 ± 3.5 kPa
370.46 K	44.75 ± 3.6 kPa
370.74 K	45.4 ± 3.6 kPa
371.07 K	45.91 ± 3.7 kPa
371.47 K	46.64 ± 3.7 kPa
371.82 K	47.45 ± 3.8 kPa
372.15 K	47.93 ± 3.8 kPa
372.5 K	48.64 ± 3.9 kPa
372.91 K	49.31 ± 4 kPa
373.16 K	49.87 ± 4 kPa
373.57 K	50.71 ± 4.1 kPa
373.88 K	51.25 ± 4.1 kPa
374.25 K	52.03 ± 4.2 kPa
374.47 K	52.55 ± 4.2 kPa
374.85 K	53.37 ± 4.3 kPa
375.14 K	53.95 ± 4.3 kPa
375.44 K	54.67 ± 4.4 kPa
375.83 K	55.37 ± 4.4 kPa
376.13 K	56.01 ± 4.5 kPa
376.47 K	56.71 ± 4.5 kPa
376.74 K	57.36 ± 4.6 kPa
377.07 K	58 ± 4.6 kPa
377.32 K	58.64 ± 4.7 kPa
377.65 K	59.32 ± 4.8 kPa
377.91 K	59.97 ± 4.8 kPa
378.22 K	60.67 ± 4.8 kPa
378.56 K	61.4 ± 4.9 kPa
378.81 K	61.97 ± 5 kPa
379.04 K	62.61 ± 5 kPa
379.39 K	63.39 ± 5.1 kPa
379.6 K	63.91 ± 5.1 kPa
379.89 K	64.6 ± 5.2 kPa
380.13 K	65.2 ± 5.2 kPa
380.47 K	65.99 ± 5.3 kPa
380.7 K	66.63 ± 5.3 kPa
381 K	67.31 ± 5.4 kPa
381.26 K	68.01 ± 5.4 kPa
381.53 K	68.67 ± 5.5 kPa
381.76 K	69.31 ± 5.5 kPa
382.08 K	70.21 ± 5.6 kPa
382.28 K	70.63 ± 5.7 kPa
382.55 K	71.31 ± 5.7 kPa
382.78 K	71.95 ± 5.8 kPa
383.05 K	72.65 ± 5.8 kPa
383.29 K	73.35 ± 5.9 kPa
383.53 K	73.93 ± 5.9 kPa
383.76 K	74.63 ± 6 kPa
384.09 K	75.48 ± 6 kPa
384.26 K	75.99 ± 6.1 kPa
384.5 K	76.63 ± 6.1 kPa
384.74 K	77.35 ± 6.2 kPa
384.95 K	77.93 ± 6.2 kPa
385.42 K	79.27 ± 6.3 kPa
385.65 K	80 ± 6.4 kPa
385.87 K	80.56 ± 6.5 kPa
386.24 K	81.79 ± 6.5 kPa
386.32 K	81.88 ± 6.5 kPa
386.54 K	82.68 ± 6.6 kPa
386.76 K	83.23 ± 6.7 kPa
386.96 K	84.05 ± 6.7 kPa
387.37 K	85.27 ± 6.8 kPa
387.8 K	86.61 ± 6.9 kPa
388.23 K	88 ± 7 kPa
388.66 K	89.39 ± 7.2 kPa
389.07 K	90.69 ± 7.3 kPa
389.51 K	92.16 ± 7.4 kPa
389.9 K	93.44 ± 7.5 kPa
390.26 K	94.61 ± 7.6 kPa
390.65 K	95.95 ± 7.7 kPa
391.05 K	97.27 ± 7.8 kPa
391.46 K	98.71 ± 7.9 kPa
